Literature values in US11576862B2, “Methods and compositions for preparing a silk microsphere” (Trustees of Tufts College, priority 2012, dated 2023).
Counter-ions that a name gives are not always drawn.

SMILES: CC12CC3CC(C)(C1)CC(N)(C3)C2 [Memantine hydrochloride, 3,5-dimethyltricyclo[3.3.1.1]decan-1amine]
- water solubility: 50 mg/mL
